Source: patent US8178668B2, “2-aminopyridine kinase inhibitors” (OSI Pharmaceuticals, LLC, priority 2008, dated 2012)
Structures can show the parent of a compound that is named as a salt.

How the values were obtained:
[1] = target: RON (human) (Homo sapiens, UniProt Q04912); assay: RON kinase AlphaScreen assay (Km of ATP); assay type: biochemical; conditions: ATP at Km; at least duplicate experiments
Outline: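 AlphaScreen with PT66 donor/acceptor beads, read after 1 h, detected phosphorylation of biotinylated poly(Glu,Tyr) by human RON. Enzyme-started reactions ran 30 min at room temperature with ATP at Km. Buffer was HEPES pH 7.4 with MgCl2, glycerol, vanadate and 1% DMSO.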

[2] = target: MET (human) (Homo sapiens, UniProt P08581); assay: MET kinase AlphaScreen assay (Km of ATP); assay type: biochemical; conditions: ATP at Km; at least duplicate experiments
Sequence of MET (human) (P08581 25-1390): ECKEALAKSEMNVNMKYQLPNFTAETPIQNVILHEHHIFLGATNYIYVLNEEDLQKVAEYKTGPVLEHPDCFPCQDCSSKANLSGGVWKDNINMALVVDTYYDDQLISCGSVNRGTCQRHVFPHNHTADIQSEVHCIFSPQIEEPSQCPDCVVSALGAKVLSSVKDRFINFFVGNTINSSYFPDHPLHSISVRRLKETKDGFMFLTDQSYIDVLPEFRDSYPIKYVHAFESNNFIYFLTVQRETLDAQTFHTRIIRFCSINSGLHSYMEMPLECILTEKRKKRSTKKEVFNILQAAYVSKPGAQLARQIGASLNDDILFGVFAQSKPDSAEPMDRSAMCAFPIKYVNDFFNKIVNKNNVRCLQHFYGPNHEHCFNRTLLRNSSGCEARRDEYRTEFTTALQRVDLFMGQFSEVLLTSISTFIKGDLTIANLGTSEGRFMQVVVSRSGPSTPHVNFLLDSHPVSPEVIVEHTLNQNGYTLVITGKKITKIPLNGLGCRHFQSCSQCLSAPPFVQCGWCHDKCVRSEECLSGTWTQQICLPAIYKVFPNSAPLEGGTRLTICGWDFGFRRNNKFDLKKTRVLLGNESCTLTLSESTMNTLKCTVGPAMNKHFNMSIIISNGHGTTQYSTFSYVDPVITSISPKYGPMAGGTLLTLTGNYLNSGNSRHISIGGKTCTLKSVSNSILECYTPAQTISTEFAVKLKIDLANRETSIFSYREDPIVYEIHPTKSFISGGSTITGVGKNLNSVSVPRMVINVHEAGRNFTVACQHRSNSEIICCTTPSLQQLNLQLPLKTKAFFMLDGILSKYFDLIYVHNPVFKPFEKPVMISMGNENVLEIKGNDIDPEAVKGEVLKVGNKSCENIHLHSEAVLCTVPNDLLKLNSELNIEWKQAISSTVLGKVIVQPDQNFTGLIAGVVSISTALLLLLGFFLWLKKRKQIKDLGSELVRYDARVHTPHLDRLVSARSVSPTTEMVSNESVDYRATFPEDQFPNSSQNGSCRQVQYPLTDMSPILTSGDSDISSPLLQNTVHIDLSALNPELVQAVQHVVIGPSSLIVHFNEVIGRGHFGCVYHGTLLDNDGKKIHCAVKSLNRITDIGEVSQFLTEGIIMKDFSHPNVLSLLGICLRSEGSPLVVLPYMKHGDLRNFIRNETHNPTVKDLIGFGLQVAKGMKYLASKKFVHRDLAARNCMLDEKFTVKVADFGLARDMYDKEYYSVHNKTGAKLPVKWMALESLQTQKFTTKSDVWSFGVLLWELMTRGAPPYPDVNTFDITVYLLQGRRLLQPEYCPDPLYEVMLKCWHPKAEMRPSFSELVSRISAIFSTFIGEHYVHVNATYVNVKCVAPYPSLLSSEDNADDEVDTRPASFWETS
Outline: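 AlphaScreen detection with PT66 beads (1 h) follows a 60 min room-temperature MET reaction. Substrate is 200 ng/μL biotinylated poly(Glu,Tyr), with ATP set at an enzyme-optimized concentration. Buffer is HEPES pH 7.4 with MgCl2, MnCl2 and 0.334 mM vanadate, compounds at 1% DMSO.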

Sequence of RON (human) (Q04912 25-1400): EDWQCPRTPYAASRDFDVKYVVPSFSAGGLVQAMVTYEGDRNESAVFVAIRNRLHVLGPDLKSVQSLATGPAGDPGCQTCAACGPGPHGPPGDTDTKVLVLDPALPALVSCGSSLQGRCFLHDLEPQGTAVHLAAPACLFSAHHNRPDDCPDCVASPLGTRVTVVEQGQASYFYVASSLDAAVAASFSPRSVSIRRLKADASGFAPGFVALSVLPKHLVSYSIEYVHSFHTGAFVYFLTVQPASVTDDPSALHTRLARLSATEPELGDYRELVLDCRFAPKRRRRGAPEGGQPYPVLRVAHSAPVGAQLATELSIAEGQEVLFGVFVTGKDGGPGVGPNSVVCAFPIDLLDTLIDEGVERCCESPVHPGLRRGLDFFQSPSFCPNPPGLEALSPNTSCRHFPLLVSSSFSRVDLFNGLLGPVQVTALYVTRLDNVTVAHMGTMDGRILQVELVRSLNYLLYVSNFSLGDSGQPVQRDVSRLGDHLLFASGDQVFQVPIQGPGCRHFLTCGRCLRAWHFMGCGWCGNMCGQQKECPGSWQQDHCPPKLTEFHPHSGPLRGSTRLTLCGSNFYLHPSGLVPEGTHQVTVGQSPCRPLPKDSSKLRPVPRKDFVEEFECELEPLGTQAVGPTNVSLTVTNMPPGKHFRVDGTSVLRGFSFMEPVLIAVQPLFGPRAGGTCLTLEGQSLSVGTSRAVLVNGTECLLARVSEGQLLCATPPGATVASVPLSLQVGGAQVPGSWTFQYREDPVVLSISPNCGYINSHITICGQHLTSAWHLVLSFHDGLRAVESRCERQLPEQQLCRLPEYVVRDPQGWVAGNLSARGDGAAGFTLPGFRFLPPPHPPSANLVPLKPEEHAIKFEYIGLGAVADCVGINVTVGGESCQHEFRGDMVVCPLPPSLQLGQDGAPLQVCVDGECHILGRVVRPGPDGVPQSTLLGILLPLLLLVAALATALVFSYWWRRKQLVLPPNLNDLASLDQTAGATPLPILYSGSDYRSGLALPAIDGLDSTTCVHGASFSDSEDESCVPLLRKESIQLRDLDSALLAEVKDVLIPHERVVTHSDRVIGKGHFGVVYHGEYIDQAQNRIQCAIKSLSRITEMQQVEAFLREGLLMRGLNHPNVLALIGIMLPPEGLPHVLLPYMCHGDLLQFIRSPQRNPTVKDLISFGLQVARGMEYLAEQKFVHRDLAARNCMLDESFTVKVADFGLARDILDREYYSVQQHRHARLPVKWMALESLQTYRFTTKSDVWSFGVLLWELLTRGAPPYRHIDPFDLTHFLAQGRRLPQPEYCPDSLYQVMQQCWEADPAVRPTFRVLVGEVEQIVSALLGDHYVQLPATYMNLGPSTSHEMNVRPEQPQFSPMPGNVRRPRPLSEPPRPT

| Structure (SMILES) | IC50 [1] | IC50 [2] |
| --- | --- | --- |
| CN(C)C(=O)N1CCC(n2cc(-c3cnc(N)c(-c4nc5ccccc5s4)c3)cn2)CC1 [Example 117, 4-[4-(6-Amino-5-benzothiazol-2-yl-pyridin-3-yl)-pyrazol-1-yl]-piperidine-1-carboxylic acid dimethylamide bis-hydrochloride] | 100 to 1000 nM | 100 to 1000 nM |
| CC(C)n1cc(-c2cnc(N)c(-c3nc4ccccc4s3)c2)cn1 [Example 118, 3-Benzothiazol-2-yl-5-(1-isopropyl-1H-pyrazol-4-yl)-pyridin-2-ylamine bis-hydrochloride] | 100 to 1000 nM | 100 to 1000 nM |
| Cn1cc(-c2cnc(N)c(-c3nc4ccccc4s3)c2)cn1 [Example 119, 3-Benzothiazol-2-yl-5-(1-methyl-1H-pyrazol-4-yl)-pyridin-2-ylamine bis-hydrochloride] | 1000 to 20000 nM | 1000 to 20000 nM |
| Nc1ncc(-c2cnc(N3CCOCC3)s2)cc1-c1nc2ccccc2s1 [Example 120, 3-Benzothiazol-2-yl-5-(2-morpholin-4-ylthiazol-5-yl)-pyridin-2-ylamine] | 1000 to 20000 nM | 1000 to 20000 nM |
| CN1CCN(c2ncc(-c3cnc(N)c(-c4nc5ccccc5s4)c3)s2)CC1 [Example 121, 3-Benzothiazol-2-yl-5-[2-(4-methylpiperazin-1-yl)-thiazol-5-yl]-pyridin-2-ylamine dihydrochloride] | 100 to 1000 nM | 100 to 1000 nM |
| Nc1ncc(-c2cnc(N3CCNCC3)s2)cc1-c1nc2ccccc2s1 [Example 122, 3-Benzothiazol-2-yl-5-(2-piperazin-1-ylthiazol-5-yl)-pyridin-2-ylamine dihydrochloride] | 100 to 1000 nM | 100 to 1000 nM |
| Nc1ncc(-c2cnn(C3CCC(=O)CC3)c2)cc1-c1nc2ccccc2s1 [Example 123, 4-[4-(6-Amino-5-benzothiazol-2-ylpyridin-3-yl)-pyrazol-1-yl]-cyclohexanone] | 100 to 1000 nM | 100 to 1000 nM |
| Nc1ncc(-c2cnn(C3CCC4(CC3)OCCO4)c2)cc1-c1nc2ccccc2s1 [Example 124, 3-Benzothiazol-2-yl-5-[1-(1,4-dioxaspiro[4.5]dec-8-yl)-1H-pyrazol-4-yl]-pyridin-2-ylamine] | 1000 to 20000 nM | > 20000 nM |
| CC(C)(C)OC(=O)NCC#Cc1cnc(N)c(-c2nc3ccccc3s2)c1 [Example 125, [3-(6-Amino-5-benzothiazol-2-ylpyridin-3-yl)-prop-2-ynyl]-carbamic acid tert-butyl ester] | > 20000 nM | 1000 to 20000 nM |
| NCC#Cc1cnc(N)c(-c2nc3ccccc3s2)c1 [Example 126, 5-(3-Aminoprop-1-ynyl)-3-benzothiazol-2-ylpyridin-2-ylamine] | > 20000 nM | 1000 to 20000 nM |
| CN(C)C(=O)NCC#Cc1cnc(N)c(-c2nc3ccccc3s2)c1 [Example 127, 3-[3-(6-Amino-5-benzothiazol-2-ylpyridin-3-yl)-prop-2-ynyl]-1,1-dimethylurea] | 1000 to 20000 nM | 1000 to 20000 nM |
| CCN1CCN(C(=O)NCC#Cc2cnc(N)c(-c3nc4ccccc4s3)c2)CC1 [Example 128, 4-Ethylpiperazine-1-carboxylic acid [3-(6-amino-5-benzothiazol-2-ylpyridin-3-yl)-prop-2-ynyl]-amide] | 1000 to 20000 nM | 1000 to 20000 nM |
| NC(=O)NCC#Cc1cnc(N)c(-c2nc3ccccc3s2)c1 [Example 129, [3-(6-Amino-5-benzothiazol-2-ylpyridin-3-yl)-prop-2-ynyl]-urea] | 1000 to 20000 nM | 1000 to 20000 nM |
| CN(C)CC(=O)NCC#Cc1cnc(N)c(-c2nc3ccccc3s2)c1 [Example 130, N-[3-(6-Amino-5-benzothiazol-2-ylpyridin-3-yl)-prop-2-ynyl]-2-dimethylaminoacetamide] | 1000 to 20000 nM | 100 to 1000 nM |
| Nc1ncc(C#CCNC(=O)CN2CCCC2)cc1-c1nc2ccccc2s1 [Example 131, N-[3-(6-Amino-5-benzothiazol-2-ylpyridin-3-yl)-prop-2-ynyl]-2-pyrrolidin-1-ylacetamide] | 1000 to 20000 nM | 1000 to 20000 nM |
| Nc1ncc(-c2cnn(CC(=O)N3CCOCC3)c2)cc1-c1nc2ccccc2s1 [Example 132, 2-[4-(6-Amino-5-benzothiazol-2-ylpyridin-3-yl)-pyrazol-1-yl]-1-morpholin-4-ylethanone] | 1000 to 20000 nM | 1000 to 20000 nM |
| Nc1ncc(-c2cnn(CC(=O)N3CCCC3)c2)cc1-c1nc2ccccc2s1 [Example 133, 2-[4-(6-Amino-5-benzothiazol-2-ylpyridin-3-yl)-pyrazol-1-yl]-1-pyrrolidin-1-ylethanone] | 1000 to 20000 nM | 1000 to 20000 nM |
| COCCNC(=O)Cn1cc(-c2cnc(N)c(-c3nc4ccccc4s3)c2)cn1 [Example 134, 2-[4-(6-Amino-5-benzothiazol-2-ylpyridin-3-yl)-pyrazol-1-yl]-N-(2-methoxyethyl)-acetamide] | 1000 to 20000 nM | 1000 to 20000 nM |

| Structure (SMILES) | IC50 [1] | IC50 [2] |
| --- | --- | --- |
| Nc1ncc(-c2cnn(CC(=O)N3CCC(O)C3)c2)cc1-c1nc2ccccc2s1 (stereo not shown) [Example 135, 2-[4-(6-Amino-5-benzothiazol-2-ylpyridin-3-yl)-pyrazol-1-yl]-1-(3-hydroxypyrrolidin-1-yl)-ethanone] | 1000 to 20000 nM | 1000 to 20000 nM |
| Nc1ncc(-c2cnn(CC(=O)NCCO)c2)cc1-c1nc2ccccc2s1 [Example 136, 2-[4-(6-Amino-5-benzothiazol-2-ylpyridin-3-yl)-pyrazol-1-yl]-N-(2-hydroxyethyl)-acetamide] | 1000 to 20000 nM | 1000 to 20000 nM |
| CNC(=O)Cn1cc(-c2cnc(N)c(-c3nc4ccccc4s3)c2)cn1 [Example 137, 2-[4-(6-Amino-5-benzothiazol-2-ylpyridin-3-yl)-pyrazol-1-yl]-N-methylacetamide] | > 20000 nM | > 20000 nM |
| COCCN(CCOC)C(=O)Cn1cc(-c2cnc(N)c(-c3nc4ccccc4s3)c2)cn1 [Example 138, 2-[4-(6-Amino-5-benzothiazol-2-ylpyridin-3-yl)-pyrazol-1-yl]-N,N-bis-(2-methoxyethyl)-acetamide] | 1000 to 20000 nM | 1000 to 20000 nM |
| Nc1ncc(-c2cnn(CC(=O)N3CCC(O)CC3)c2)cc1-c1nc2ccccc2s1 [Example 139, 2-[4-(6-Amino-5-benzothiazol-2-ylpyridin-3-yl)-pyrazol-1-yl]-1-(4-hydroxypiperidin-1-yl)-ethanone] | 1000 to 20000 nM | 1000 to 20000 nM |
| CN(C)C(=O)Cn1cc(-c2cnc(N)c(-c3nc4ccccc4s3)c2)cn1 [Example 140, 2-[4-(6-Amino-5-benzothiazol-2-ylpyridin-3-yl)-pyrazol-1-yl]-N,N-dimethylacetamide] | 1000 to 20000 nM | 1000 to 20000 nM |
| Nc1ncc(-c2cnn(CC(=O)N3CCCCC3)c2)cc1-c1nc2ccccc2s1 [Example 141, 2-[4-(6-Amino-5-benzothiazol-2-ylpyridin-3-yl)-pyrazol-1-yl]-1-piperidin-1-ylethanone] | 1000 to 20000 nM | 1000 to 20000 nM |
| CC(C(=O)N1CCOCC1)n1cc(-c2cnc(N)c(-c3nc4ccccc4s3)c2)cn1 (stereo not shown) [Example 142, 2-[4-(6-Amino-5-benzothiazol-2-ylpyridin-3-yl)-pyrazol-1-yl]-1-morpholin-4-ylpropan-1-one] | 1000 to 20000 nM | 1000 to 20000 nM |
| COCCN(CCOC)C(=O)C(C)n1cc(-c2cnc(N)c(-c3nc4ccccc4s3)c2)cn1 (stereo not shown) [Example 143, 2-[4-(6-Amino-5-benzothiazol-2-ylpyridin-3-yl)-pyrazol-1-yl]-N,N-bis-(2-methoxyethyl)-propionamide] | 1000 to 20000 nM | 1000 to 20000 nM |
| CNC(=O)C(C)n1cc(-c2cnc(N)c(-c3nc4ccccc4s3)c2)cn1 (stereo not shown) [Example 144, 2-[4-(6-Amino-5-benzothiazol-2-ylpyridin-3-yl)-pyrazol-1-yl]-N-methylpropionamide] | 1000 to 20000 nM | 1000 to 20000 nM |
| CC(C(N)=O)n1cc(-c2cnc(N)c(-c3nc4ccccc4s3)c2)cn1 (stereo not shown) [Example 145, 2-[4-(6-Amino-5-benzothiazol-2-ylpyridin-3-yl)-pyrazol-1-yl]-propionamide] | 1000 to 20000 nM | 100 to 1000 nM |
| COCCNC(=O)C(C)n1cc(-c2cnc(N)c(-c3nc4ccccc4s3)c2)cn1 (stereo not shown) [Example 146, 2-[4-(6-Amino-5-benzothiazol-2-ylpyridin-3-yl)-pyrazol-1-yl]-N-(2-methoxyethyl)-propionamide] | 1000 to 20000 nM | 1000 to 20000 nM |
| CC(C(=O)NCCO)n1cc(-c2cnc(N)c(-c3nc4ccccc4s3)c2)cn1 (stereo not shown) [Example 147, 2-[4-(6-Amino-5-benzothiazol-2-ylpyridin-3-yl)-pyrazol-1-yl]-N-(2-hydroxyethyl)-propionamide] | 1000 to 20000 nM | 1000 to 20000 nM |
| CC(C(=O)N(C)C)n1cc(-c2cnc(N)c(-c3nc4ccccc4s3)c2)cn1 (stereo not shown) [Example 148, 2-[4-(6-Amino-5-benzothiazol-2-ylpyridin-3-yl)-pyrazol-1-yl]-N,N-dimethylpropionamide] | 1000 to 20000 nM | 1000 to 20000 nM |
| CC(C(=O)N1CCC(O)C1)n1cc(-c2cnc(N)c(-c3nc4ccccc4s3)c2)cn1 (stereo not shown) [Example 149, 2-[4-(6-Amino-5-benzothiazol-2-ylpyridin-3-yl)-pyrazol-1-yl]-1-(3-hydroxypyrrolidin-1-yl)-propan-1-one] | 1000 to 20000 nM | 1000 to 20000 nM |
| CC(C(=O)N1CCC(O)CC1)n1cc(-c2cnc(N)c(-c3nc4ccccc4s3)c2)cn1 (stereo not shown) [Example 150, 2-[4-(6-Amino-5-benzothiazol-2-ylpyridin-3-yl)-pyrazol-1-yl]-1-(4-hydroxypiperidin-1-yl)-propan-1-one] | 100 to 1000 nM | 100 to 1000 nM |
| CC(C(=O)N1CCCC1)n1cc(-c2cnc(N)c(-c3nc4ccccc4s3)c2)cn1 (stereo not shown) [Example 151, 2-[4-(6-Amino-5-benzothiazol-2-ylpyridin-3-yl)-pyrazol-1-yl]-1-pyrrolidin-1-ylpropan-1-one] | 100 to 1000 nM | 100 to 1000 nM |
